Measured values: patent publication US20140335135A1, “PHARMACEUTICAL COMPOSITION” (FERRING BV, priority 2011, published 2014)

What was measured:
[1] = Particle size distribution by optical microscopy (diameter of the coextensive circle); assay type: physicochemical
Protocol: Two different methods were used to incorporate triptorelin into the hexyl substituted polylactide polymer. The first was a “separate milling and mixing” method in which the triptorelin was micronized using an SPEX 6700 Freezer/mill at −196° C. in liquid nitrogen (milling for 5 min), the resulting micronized powder being mixed with the hexyl substituted polylactide polymer by kneading in plastic bags until a homogeneous formulation was obtained (as verified by optical microscopy).
In the second method, lyophilised triptorelin (10% by weight of polymer or 5% by weight polymer or 2.5% by weight polymer) was incorporated into the polymer by a combined direct “cryo-milling-mixing” technique. The triptorelin was micronized together with the polymer in a cryo-mill (SPEX 6700 Freezer/mill) at −196 C for five minutes in liquid nitrogen. The particle size distribution in the formulations was analysed using an Optishot-2 microscope (Nikon, Tokyo, Japan) and ImageJ software.
The kneading provided a homogenous suspension (FIG. 1a) although the average diameter increased to 9.0 μm because some larger particles of more than 30 μm were formed due to agglomeration.

[2] = Solubility of triptorelin in hexyl substituted polylactide polymer; assay type: physicochemical
Text: Triptorelin is not soluble in the hexyl substituted polylactide polymer (which is a viscous liquid) because of its relatively high hydrophilicity. The lyophilized triptorelin was therefore micronized, by cryomilling or spray-drying, to ensure small particle size for incorporation into the polymer. Preferably the triptorelin (or salt/derivative thereof) is micronized/mixed with the polylactide at a temperature below the glass transition temperature of the polylactide, more preferably at temperature of around −196° C., so as to avoid melting and resulting increased viscosity of the polylactide.

SMILES: CC(C)C[C@H](NC(=O)[C@@H](Cc1c[nH]c2ccccc12)NC(=O)[C@H](Cc1ccc(O)cc1)NC(=O)[C@H](CO)NC(=O)[C@H](Cc1c[nH]c2ccccc12)NC(=O)[C@H](Cc1c[nH]cn1)NC(=O)[C@@H]1CCC(=O)N1)C(=O)N[C@@H](CCCNC(=N)N)C(=O)N1CCC[C@H]1C(=O)NCC(N)=O [Triptorelin, L-Pyroglutamyl-L-histidyl-Ltryptophyl-L-seryl-L-tyrosyl-D-tryptophyl-L-eucy-L-arginy-L-prolyl-glycinamide]
- average diameter for the coextensive circle [1]: 5.6 μm
- solubility in the hexyl substituted polylactide polymer [2]: not soluble
